Experimental data reported in patent US10597388B2, “Pyridazinone herbicides” (FMC CORPORATION, priority 2014, dated 2020).

Assays:
Assay in all cases: Test D controlled growth environment herbicide test, pre- and postemergence
Assay type in all cases: in vivo
[1] = test system: galium (catchweed bedstraw, Galium aparine)
Summary of the method: (§1)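 Pre-emergence: seeds sown in silt loam soil were sprayed with compound in a non-phytotoxic solvent mix containing surfactant. Post-emergence: plants at 2 to 18 cm (1- to 4-leaf stage) in peat moss/vermiculite medium got the same formulation. Visual 0–100 rating versus controls after 14 to 21 d.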

[2] = test system: deadnettle (henbit deadnettle, Lamium amplexicaule)
Summary of the method: as §1

[3] = test system: oilseed rape (Brassica napus)
Summary of the method: as §1

[4] = test system: windgrass (Apera spica-venti)
Summary of the method: as §1

[5] = test system: wheat, winter (winter wheat, Triticum aestivum)
Summary of the method: as §1

[6] = test system: field violet (Viola arvensis)
Summary of the method: as §1

[7] = test system: ryegrass, Italian (Italian ryegrass, Lolium multiflorum)
Summary of the method: as §1

[8] = test system: bromegrass, downy (downy bromegrass, Bromus tectorum)
Summary of the method: as §1

[9] = test system: buckwheat, wild (wild buckwheat, Polygonum convolvulus)
Summary of the method: as §1

[10] = test system: chamomile (scentless chamomile, Matricaria inodora)
Summary of the method: as §1

[11] = test system: chickweed (common chickweed, Stellaria media)
Summary of the method: as §1

[12] = test system: foxtail, green (green foxtail, Setaria viridis)
Summary of the method: as §1

[13] = test system: lambsquarters (Chenopodium album)
Summary of the method: as §1

[14] = test system: canarygrass (Phalaris minor)
Summary of the method: as §1

[15] = Postemergence, 31 g ai/ha, scale 0 to 100 (0 no effect, 100 complete control)
[16] = Postemergence, 125 g ai/ha, visual rating on scale 0 (no effect) to 100 (complete control), 14 to 21 d
[17] = Postemergence, 250 g ai/ha, scale 0 to 100 (0 no effect, 100 complete control)
[18] = Preemergence, 62 g ai/ha, scale 0 to 100 (0 no effect, 100 complete control)
[19] = Preemergence, 125 g ai/ha, scale 0 to 100 (0 no effect, 100 complete control)
[20] = Preemergence, 250 g ai/ha, scale 0 to 100, 0 no effect, 100 complete control
[21] = postemergence, 62 g ai/ha, scale 0 to 100, 0 no effect, 100 complete control

**Q.** What does the source list for `Cc1cc(C)c2sc(C)c(-c3c(O)c(C)nn(C)c3=O)c2c1` [Compound 2, 5-hydroxy-2,6-dimethyl-4-(2,5,7-trimethylbenzo[b]thien-3-yl)-3(2H)-pyridazinone]?
**A.** Galium plant response rating [1, 15]: 85; Plant response rating, Galium [1, 16]: 100; Plant response rating, Galium [1, 17]: 100; Plant response rating (scale of 0 to 100), Galium ([1]; Preemergence, 31 g ai/ha): 100; Plant response rating, Galium [1, 18]: 85; Plant response rating, Galium [1, 19]: 100; Plant response rating, Galium [1, 20]: 100; Plant response rating, Galium [1, 21]: 100; Deadnettle plant response rating [2, 15]: 60; Plant response rating, Deadnettle [2, 16]: 60; Plant response rating, Deadnettle [2, 17]: 60; Plant response rating (scale of 0 to 100), Deadnettle ([2]; Preemergence, 31 g ai/ha): 0; Plant response rating, Deadnettle [2, 18]: 0; Plant response rating, Deadnettle [2, 19]: 0; Plant response rating, Deadnettle [2, 20]: 55; Plant response rating, Deadnettle [2, 21]: 60; Oilseed Rape plant response rating [3, 15]: 20; Plant response rating, Oilseed Rape [3, 16]: 55; Plant response rating, Oilseed Rape [3, 17]: 70; Plant response rating (scale of 0 to 100), Oilseed Rape ([3]; Preemergence, 31 g ai/ha): 0; Plant response rating, Oilseed Rape [3, 18]: 0; Plant response rating, Oilseed Rape [3, 19]: 20; Plant response rating, Oilseed Rape [3, 20]: 40; Plant response rating, Oilseed Rape [3, 21]: 45; Windgrass plant response rating [4, 15]: 10; Plant response rating, Windgrass [4, 16]: 55; Plant response rating, Windgrass [4, 17]: 70; Plant response rating (scale of 0 to 100), Windgrass ([4]; Preemergence, 31 g ai/ha): 60; Plant response rating, Windgrass [4, 18]: 75; Plant response rating, Windgrass [4, 19]: 95; Plant response rating, Windgrass [4, 20]: 100; Plant response rating, Windgrass [4, 21]: 25; Wheat, Winter plant response rating [5, 15]: 0; Plant response rating, Wheat, Winter [5, 16]: 5; Plant response rating, Wheat, Winter [5, 17]: 10; Plant response rating (scale of 0 to 100), Wheat, Winter ([5]; Preemergence, 31 g ai/ha): 0; Plant response rating, Wheat, Winter [5, 18]: 0; Plant response rating, Wheat, Winter [5, 19]: 0; Plant response rating, Wheat, Winter [5, 20]: 5; Plant response rating, Wheat, Winter [5, 21]: 0; Field Violet plant response rating [6, 15]: 60; Plant response rating, Field Violet [6, 16]: 75; Plant response rating, Field Violet [6, 17]: 80; Plant response rating (scale of 0 to 100), Field Violet ([6]; Preemergence, 31 g ai/ha): 95; Plant response rating, Field Violet [6, 18]: 100; Plant response rating, Field Violet [6, 19]: 100; Plant response rating, Field Violet [6, 20]: 100; Plant response rating, Field Violet [6, 21]: 85; Ryegrass, Italian plant response rating [7, 15]: 70; Plant response rating, Ryegrass, Italian [7, 16]: 85; Plant response rating, Ryegrass, Italian [7, 17]: 90; Plant response rating (scale of 0 to 100), Ryegrass, Italian ([7]; Preemergence, 31 g ai/ha): 85; Plant response rating, Ryegrass, Italian [7, 18]: 95; Plant response rating, Ryegrass, Italian [7, 19]: 100; Plant response rating, Ryegrass, Italian [7, 20]: 100; Plant response rating, Ryegrass, Italian [7, 21]: 80; Bromegrass, Downy plant response rating [8, 15]: 10; Plant response rating, Bromegrass, Downy [8, 16]: 10; Plant response rating, Bromegrass, Downy [8, 17]: 20; Plant response rating (scale of 0 to 100), Bromegrass, Downy ([8]; Preemergence, 31 g ai/ha): 10; Plant response rating, Bromegrass, Downy [8, 18]: 50; Plant response rating, Bromegrass, Downy [8, 19]: 65; Plant response rating, Bromegrass, Downy [8, 20]: 70; Plant response rating, Bromegrass, Downy [8, 21]: 10; Buckwheat, Wild plant response rating [9, 15]: 85; Plant response rating, Buckwheat, Wild [9, 16]: 100; Plant response rating, Buckwheat, Wild [9, 17]: 100; Plant response rating, Buckwheat, Wild [9, 18]: 10; Plant response rating, Buckwheat, Wild [9, 19]: 100; Plant response rating, Buckwheat, Wild [9, 20]: 100; Plant response rating, Buckwheat, Wild [9, 21]: 95; Chamomile plant response rating [10, 15]: 70; Plant response rating, Chamomile [10, 16]: 90; Plant response rating, Chamomile [10, 17]: 100; Plant response rating (scale of 0 to 100), Chamomile ([10]; Preemergence, 31 g ai/ha): 80; Plant response rating, Chamomile [10, 18]: 100; Plant response rating, Chamomile [10, 19]: 95; Plant response rating, Chamomile [10, 20]: 100; Plant response rating, Chamomile [10, 21]: 80; Chickweed plant response rating [11, 15]: 85; Plant response rating, Chickweed [11, 16]: 100; Plant response rating, Chickweed [11, 17]: 100; Plant response rating (scale of 0 to 100), Chickweed ([11]; Preemergence, 31 g ai/ha): 90; Plant response rating, Chickweed [11, 18]: 100; Plant response rating, Chickweed [11, 19]: 100; Plant response rating, Chickweed [11, 20]: 100; Plant response rating, Chickweed [11, 21]: 95; Foxtail, Green plant response rating [12, 15]: 70; Plant response rating, Foxtail, Green [12, 16]: 95; Plant response rating, Foxtail, Green [12, 17]: 100; Plant response rating (scale of 0 to 100), Foxtail, Green ([12]; Preemergence, 31 g ai/ha): 65; Plant response rating, Foxtail, Green [12, 18]: 100; Plant response rating, Foxtail, Green [12, 19]: 100; Plant response rating, Foxtail, Green [12, 20]: 100; Plant response rating, Foxtail, Green [12, 21]: 80; Lambsquarters plant response rating [13, 15]: 90; Plant response rating, Lambsquarters [13, 16]: 95; Plant response rating, Lambsquarters [13, 17]: 100; Plant response rating (scale of 0 to 100), Lambsquarters ([13]; Preemergence, 31 g ai/ha): 15; Plant response rating, Lambsquarters [13, 18]: 60; Plant response rating, Lambsquarters [13, 19]: 100; Plant response rating, Lambsquarters [13, 20]: 100; Plant response rating, Lambsquarters [13, 21]: 90; Canarygrass plant response rating [14, 15]: 25; Plant response rating, Canarygrass [14, 16]: 55; Plant response rating, Canarygrass [14, 17]: 75; Plant response rating (scale of 0 to 100), Canarygrass ([14]; Preemergence, 31 g ai/ha): 40; Plant response rating, Canarygrass [14, 18]: 60; Plant response rating, Canarygrass [14, 19]: 85; Plant response rating, Canarygrass [14, 20]: 90; Plant response rating, Canarygrass [14, 21]: 40
